Holding throughout (assay type): cell-based
The target in test [1] is T1, STING (Homo sapiens, UniProt Q86WV6, G230A/H232R/R293Q/R71H).
T1 construct: THP1 was purchased from National Collection of Authenticated Cell Cultures (Cat #TCHu 57); host or cells: THP1
As to the kind of experiment: IFNβ release from THP1 by STING activation (hIFNβ ELISA). As to conditions: THP1 cells, 24 h, IFN-β in supernatant; inactive = IFNβ not detected at the maximum concentration of compounds. In short, it runs like this: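 THP1 cells from log-phase culture, suspended at 2×10^6 cells/ml, were treated with an 8-point, 3-fold compound series (0.2% DMSO final) for 24 h at 37°C, 5% CO2. Secreted IFN-β in supernatant was quantified by human IFNβ ELISA, and EC50 was obtained by curve fitting.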
(In an ELISA, binding on a coated surface is turned into a signal by an enzyme label.)

For test [2], the target named is T2, STING variants (HAQ) (Homo sapiens, UniProt Q86WV6, G230A/R293Q/R71H).
T2 construct: host or cells: HEK-Blue ISG KO-STING cells (Invivogen, hkb-kostg)
T2 sequence (Q86WV6 whole entry R71H/G230A/R293Q): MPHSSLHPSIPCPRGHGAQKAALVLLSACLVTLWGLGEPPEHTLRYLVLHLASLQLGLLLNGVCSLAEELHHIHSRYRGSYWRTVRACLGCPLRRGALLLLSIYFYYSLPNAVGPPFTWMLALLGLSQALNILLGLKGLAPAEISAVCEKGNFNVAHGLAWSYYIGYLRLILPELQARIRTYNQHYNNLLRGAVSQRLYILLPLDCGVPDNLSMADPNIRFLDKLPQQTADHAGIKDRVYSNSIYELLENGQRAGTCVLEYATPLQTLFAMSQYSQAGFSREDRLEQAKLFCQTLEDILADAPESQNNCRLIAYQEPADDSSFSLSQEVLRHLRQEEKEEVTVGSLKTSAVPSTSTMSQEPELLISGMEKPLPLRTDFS
The test is described as follows: SEAP reporter assay in HEK-Blue ISG KO-STING cells transfected with STING HAQ variant (Method 2, 0.0625 ng vector). As to conditions: compound concentration 5 (mM as printed); 24 h; SEAP signal ratio to 0.5% DMSO. From the text: (§1) Example II: STING Variants (WT & HAQ) Activation by Compounds in HEK-Blue™ ISG KO-STING Cells (Method 2)
(§2) Activation of STING can be determined using a SEAP reporter assay in HEK-Blue™ ISG KO-STING cells (Invivogen, cat #hkb-kostg) transfected with plasmids expressing STING variants (WT & HAQ) (referred to WO2017/175147A1). STING variants (WT & HAQ) vector were constructed based on STING-232H vector (Origene, RC208418). GFP vector (VT2069) was bought from Youbio. The detailed protocol as follows: HEK-Blue™ ISG KO-STING cells were harvest and seeding into 96 well plate and the final cell number was 0.8×10^5 cells/well. Transfections were prepared using Lipofectamine 2000 (Invitrogen, Cat #11668-027) following the manufacturer's instructions (Lipo2000:DNA=1:10), 20 ul of transfection suspension containing 1 ng (WT variant) or 0.0625 ng (HAQ variant) STING vector was added to cell culture plate and incubated at 37° C., 5% CO2 for 24 h. After 24 hours incubation, compounds were added at proper concentration, the final DMSO concentration was 0.5%. After 24h incubation, the supernatant was collected to detect SEAP signal using Great EscAPe SEAP chemiluminescence KIT (Clontech, cat #631738) and cells were collected to detect cell viability using CellTiter-Glo Luminescent Cell Viability Assay(Promega, cat #G7573) following the manufacturer's instructions. The data were described by the ratio of the stimulating signal of compounds to 0.5% DMSO.
For orientation: Reporter assays use an easily measured gene product as a stand-in for the process of interest.

Test [3] deals with T3, STING variants (WT) (Homo sapiens, UniProt Q86WV6).
T3 construct: host or cells: HEK-Blue ISG KO-STING cells (Invivogen, hkb-kostg)
As to the kind of experiment: SEAP reporter assay in HEK-Blue ISG KO-STING cells transfected with STING WT variant (Method 2, 1 ng vector). As to conditions: compound concentration 2.5 (mM as printed); 24 h; SEAP signal ratio to 0.5% DMSO.
Excerpt: as §1, §2

Some results are limits rather than exact numbers.

This is an account of results in patent US20240287093A1, “HIGH ACTIVITY STING PROTEIN AGONIST” (ADLAI NORTYE BIOPHARMA CO., LTD., priority 2018, published 2024).

T1 sequence (Q86WV6 whole entry R71H/G230A/H232R/R293Q): as the sequence (Q86WV6 whole entry R71H/G230A/R293Q) above, with H232R counted along it

Take `C=CCCCn1nc(C)cc1C(=O)Nc1nc2cc(C(N)=O)cc3c2n1[C@@H](CCCN)CO3` [Example 50, (S)-3-(3-Aminopropyl)-2-(3-methyl-1-(pent-4-en-1-yl)-1H-pyrazole-5-carboxamido)-3,4-dihydro-5-oxa-1,2a-diazaacenaphthylene-7-carboxamide]: the “hIFNβ ELISA (EC50, μM)” value in test [1] was “inactive”. Besides, the “Fold change related to DMSO control, HAQ” value in test [2] turned out to be 1.27 fold. For the same compound, the “Fold change related to DMSO control, WT” value in test [3] came out at 0.83 fold.
What is called EC50 is the concentration needed to bring the measured effect to its halfway point. A lower EC50 goes with a more potent agent. In the case of `CCn1nc(C)cc1C(=O)Nc1nc2cc(C(N)=O)cc3c2n1CCCN3C` [Example 60, 1-(1-ethyl-3-methyl-1H-pyrazole-5-carboxamido)-6-methyl-6,7,8,9-tetrahydro-2,6,9a-triaza benzo[cd]azulene-4-carboxamide], in test [1], the EC50 came to 15.8 µM. The “Fold change related to DMSO control, HAQ” value in test [2] came out at 73.46 fold. Besides, the “Fold change related to DMSO control, WT” value in test [3] was 6.55 fold.
`CCn1nc(C)cc1C(=O)Nc1nc2cc(C(N)=O)cc3c2n1[C@@H](CO)CO3` [Example 58, (S)-2-(1-ethyl-3-methyl-1H-pyrazole-5-carboxamido)-3-(hydroxymethyl)-3,4-dihydro-5-oxa-1,2a-diazaacenaphthylene-7-carboxamide] showed an EC50 in test [1] of over 50 µM. In test [2], the “Fold change related to DMSO control, HAQ” value stood at 0.95 fold. Further, the “Fold change related to DMSO control, WT” value in test [3] was determined as 1.06 fold.
Turning to `CCn1nc(C)c(Cl)c1C(=O)Nc1nc2cc(C(N)=O)cc3c2n1CC(C)(C)CO3` [Example 45, 1-(4-Chloro-1-ethyl-3-methyl-1H-pyrazole-5-carboxamido)-8,8-dimethyl-8,9-dihydro-7H-6-oxa-2,9a-diazabenzo[cd]azulene-4-carboxamide], in test [1], the “hIFNβ ELISA (EC50, μM)” value was “inactive”. In addition, the “Fold change related to DMSO control, HAQ” value in test [2] worked out at 1.59 fold. Moreover, the “Fold change related to DMSO control, WT” value in test [3] turned out to be 1.18 fold.
In test [1], `CCn1nc(C)cc1C(=O)Nc1nc2cc(C(N)=O)cc3c2n1[C@@H](C)CCO3` [Example 62, (S)-1-(1-ethyl-3-methyl-1H-pyrazole-5-carboxamido)-9-methyl-8,9-dihydro-7H-6-oxa-2,9a-diazabenzo[cd]azulene-4-carboxamide] came in with an EC50 of over 27.2 µM. For the same compound, the “Fold change related to DMSO control, HAQ” value in test [2] amounted to 13.40 fold. Besides, the “Fold change related to DMSO control, WT” value in test [3] worked out at 1.84 fold.
In the case of `CCN1CC(C)(C)Cn2c(NC(=O)c3cc(C)nn3CC)nc3cc(C(N)=O)cc1c32` [Example 69, 6-Ethyl-1-(1-ethyl-3-methyl-1H-pyrazole-5-carboxamido)-8,8-dimethyl-6,7,8,9-tetrahydro-2,6,9a-triazabenzo[cd]azulene-4-carboxamide], the EC50 in test [1] worked out at 7.6 µM. Also, in test [2], the “Fold change related to DMSO control, HAQ” value was determined as 74.83 fold. Further, the “Fold change related to DMSO control, WT” value in test [3] was 7.69 fold.
With `CC[C@H]1COc2cc(C(N)=O)cc3nc(NC(=O)c4c(Cl)c(C)nn4CC)n1c23` [Example 48, (S)-2-(4-Chloro-1-ethyl-3-methyl-1H-pyrazole-5-carboxamido)-3-ethyl-3,4-dihydro-5-oxa-1,2a-diazaacenaphthylene-7-carboxamide], the “hIFNβ ELISA (EC50, μM)” value in test [1] was “inactive”. In addition, in test [2], the “Fold change related to DMSO control, HAQ” value was 3.46 fold. Moreover, in test [3], the “Fold change related to DMSO control, WT” value is given as 1.85 fold.
In the case of `CCn1nc(C)c(F)c1C(=O)Nc1nc2cc(C(N)=O)cc3c2n1CC(C)(C)CO3` [Example 44, 1-(1-Ethyl-4-fluoro-3-methyl-1H-pyrazole-5-carboxamido)-8,8-dimethyl-8,9-dihydro-7H-6-oxa-2,9a-diazabenzo[cd]azulene-4-carboxamide], the EC50 in test [1] was 19.8 µM. Besides, the “Fold change related to DMSO control, HAQ” value in test [2] worked out at 15.38 fold. Also, the “Fold change related to DMSO control, WT” value in test [3] is reported as 2.48 fold.
`CCn1nc(C)c(F)c1C(=O)Nc1nc2cc(C(N)=O)cc3c2n1CCCO3` [Example 65, 1-(1-ethyl-4-fluoro-3-methyl-1H-pyrazole-5-carboxamido)-8,9-dihydro-7H-6-oxa-2,9a-diazabenzo[cd]azulene-4-carboxamide] gave an EC50 in test [1] of over 11.6 µM. For the same compound, the “Fold change related to DMSO control, HAQ” value in test [2] amounted to 8.89 fold. In addition, the “Fold change related to DMSO control, WT” value in test [3] is recorded as 1.63 fold.
In the case of `CCn1nc(C)cc1C(=O)Nc1nc2cc(C(N)=O)cc3c2n1C[C@@H](CO)O3` [Example 52, (S)-2-(1-ethyl-3-methyl-1H-pyrazole-5-carboxamido)-4-(hydroxymethyl)-3,4-dihydro-5-oxa-1,2a-diazaacenaphthylene-7-carboxamide], in test [1], the “hIFNβ ELISA (EC50, μM)” value is “inactive”. For the same compound, in test [2], the “Fold change related to DMSO control, HAQ” value came to 0.82 fold. Besides, the “Fold change related to DMSO control, WT” value in test [3] came out at 0.82 fold.
Consider `CCn1nc(C)c(F)c1C(=O)Nc1nc2cc(C(N)=O)cc3c2n1[C@@H](C)CCO3` [Example 63, (S)-1-(1-ethyl-4-fluoro-3-methyl-1H-pyrazole-5-carboxamido)-9-methyl-8,9-dihydro-7H-6-oxa-2,9a-diazabenzo[cd]azulene-4-carboxamide], for which, in test [1], the EC50 is over 16.7 µM. Besides, in test [2], the “Fold change related to DMSO control, HAQ” value stood at 15.19 fold. Moreover, in test [3], the “Fold change related to DMSO control, WT” value is given as 2.10 fold.
Regarding `C=Cc1c(C)nn(CC)c1C(=O)Nc1nc2cc(C(N)=O)cc3c2n1[C@@H](CCCN)CO3` [Example 51, (S)-3-(3-Aminopropyl)-2-(1-ethyl-3-methyl-4-vinyl-1H-pyrazole-5-carboxamido)-3,4-dihydro-5-oxa-1,2a-diazaacenaphthylene-7-carboxamide], the “hIFNβ ELISA (EC50, μM)” value in test [1] was “inactive”. In addition, the “Fold change related to DMSO control, HAQ” value in test [2] is on record as 0.63 fold. In addition, the “Fold change related to DMSO control, WT” value in test [3] worked out at 0.79 fold.
Turning to `CC[C@H]1COc2cc(C(N)=O)cc3nc(NC(=O)c4c(Br)c(C)nn4CC)n1c23` [Example 49, (S)-2-(4-Bromo-1-ethyl-3-methyl-1H-pyrazole-5-carboxamido)-3-ethyl-3,4-dihydro-5-oxa-1,2a-diazaacenaphthylene-7-carboxamide], the EC50 in test [1] is over 2.5 µM. The “Fold change related to DMSO control, HAQ” value in test [2] is given as 1.94 fold. Also, in test [3], the “Fold change related to DMSO control, WT” value turned out to be 1.49 fold.
On to `CCn1nc(C)c(F)c1C(=O)Nc1nc2cc(C(N)=O)cc3c2n1[C@@H](C(C)C)CO3` [Example 54, (S)-2-(1-Ethyl-4-fluoro-3-methyl-1H-pyrazole-5-carboxamido)-3-isopropyl-3,4-dihydro-5-oxa-1,2a-diazaacenaphthylene-7-carboxamide], for which, in test [1], the EC50 is over 16.7 µM. Moreover, the “Fold change related to DMSO control, HAQ” value in test [2] is recorded as 7.79 fold. Also, the “Fold change related to DMSO control, WT” value in test [3] was found to be 2.29 fold.
For `CCn1nc(C)cc1C(=O)Nc1nc2cc(C(N)=O)cc3c2n1CC1(COC1)CO3` [Example 59, 1-(1-Ethyl-3-methyl-1H-pyrazole-5-carboxamido)-7H,9H-6-oxa-2,9a-diazaspiro[benzo[cd]azulene-8,3′-oxetan]-1,2a,2a^1(5a),4-tetraene-4-carboxamide], in test [1], the EC50 is over 21.6 µM. The “Fold change related to DMSO control, HAQ” value in test [2] was 1.13 fold. Also, the “Fold change related to DMSO control, WT” value in test [3] stood at 1.22 fold.
In test [1], `CCn1nc(C)c(Br)c1C(=O)Nc1nc2cc(C(N)=O)cc3c2n1CC(C)(C)CO3` [Example 46, 1-(4-Bromo-1-ethyl-3-methyl-1H-pyrazole-5-carboxamido)-8,8-dimethyl-8,9-dihydro-7H-6-oxa-2,9a-diazabenzo[cd]azulene-4-carboxamide] registered an EC50 of over 5.6 µM. Besides, the “Fold change related to DMSO control, HAQ” value in test [2] turned out to be 2.12 fold. Also, the “Fold change related to DMSO control, WT” value in test [3] is reported as 1.41 fold.
